Here are results for one compound from publication PMC2254147, “Novel Triazine JPC-2067-B Inhibits Toxoplasma gondii In Vitro and In Vivo” (PLoS Neglected Tropical Diseases, 2008).

For this experiment, the target named is T1, Pc DHFR (Pneumocystis carinii, UniProt P16184).
T1 construct: made in house; host or cells: Escherichia coli
T1 sequence (P16184 1-206): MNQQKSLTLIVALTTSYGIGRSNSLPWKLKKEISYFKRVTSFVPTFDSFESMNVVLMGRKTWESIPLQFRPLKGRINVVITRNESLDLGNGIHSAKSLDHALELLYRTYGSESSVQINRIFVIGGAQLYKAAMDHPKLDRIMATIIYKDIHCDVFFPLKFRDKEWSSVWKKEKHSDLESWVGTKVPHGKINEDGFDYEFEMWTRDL
In words: Spectrophotometric DHFR assay, Pneumocystis carinii DHFR. The format is biochemical. To be noted: 37°C; (95% confidence limits); read-out: Pc DHFR IC50. An excerpt: DHFR from Pneumocystis carinii was produced as the recombinant enzyme expressed in Escherichia coli. […] DHFR from T. gondii was isolated directly from RH strain T. gondii grown in culture on Chinese hamster ovary cells lacking DHFR (CHO/dhfr^-, American Type Culture Collection 3952 CL). Organisms were introduced into a confluent monolayer and harvested when the mammalian cells were lysed. The 100,000× g supernate was stored in liquid nitrogen.
The spectrophotometric assay for DHFR was optimized for temperature and concentration of substrate and cofactor for each enzyme. The standard assay contained Na phosphate buffer pH 7.4 (40.7 mM), 2-mercaptoethanol (8.9 mM), NADPH (0.117 mM), dihydrofolic acid (0.09 mM), KCL (150 mM), and sufficient enzyme to produce a change in OD340 of 0.035/minute at 37°C. The reaction was continuously recorded for 3 minutes. […] The low background activity in the absence of dihydrofolic acid was subtracted from all rates.
DHFR was assayed with several concentrations of inhibitor to produce rates ranging from 1 to 90% of the uninhibited rate. At least three concentrations were required for calculation; most curves contained five concentrations.

SMILES strings stand for the structures.

On to `CC1(C)N=C(N)N=C(N)N1OCCCOc1ccc(OC(F)(F)F)cc1Cl` [JPC-2067-B, 4,6-diamino-1,2-dihydro-2,2-dimethyl-1-(3′(2-chloro-, 4-trifluoromethoxyphenoxy)propyloxy)-1,3,5-triazine], for which the IC50 (commonly the point on the concentration scale where inhibition reaches its midpoint) is 3.93 nM.
